Results reported in US5707963A, “Methods of using growth inhibitory peptides” (Health Research, Incorporated, priority 1996, dated 1998).
“And” between values parts separate entries of the source, which are not always exact repeats. Equal values may be shown once. Read-outs that look alike come from different tables or passages of the source.

What was measured:
[1] = system: human chorionic gonadotropin (HCG)-stimulated growth of mouse ovary; assay: In vivo wet weight bioassay, inhibition of HCG-stimulated growth of the ovary; conditions: for Percent Growth Inhibition: immature mouse ovary
Description: An in vivo wet weight bioassay measuring inhibition of human chorionic gonadotropin (HCG)-stimulated growth of the ovary was performed. The procedure of Mizejewski et al. (see previous citations) was used for the wet weight assay. The applicability of the wet weight bioassay for measuring HCG-stimulated growth of the ovary is disclosed by Mizejewski, G. J., "Human Chorionic Gonadotrophin: Comparative Studies of Ovarian Uptake In Mammals", Comp Biochem Physio 52A:29-34 (1975).
Briefly, the synthesized powdered peptide was reconstituted in saline (1 mg/ml) to form a stock solution of the GIP. The stock solution was appropriately diluted to provide dosages of 10ng to 100 μg/mouse. 0.1 ml of the appropriately diluted GIP was injected intraperitoneally into 15-18 day old Nya:NYLAR female mice. Control mice were injected with saline. 1 hour after this first injection, an HCG challenge of 2.8 I.U. of HCG in 0.05 ml saline was given to determine the change in ovarian responsiveness to HCG resulting from exposure to the first injection. 23 hours after the second injection, ovaries were dissected, trimmed free of connective tissue and immediately weighed. The ovarian wet weights were normalized to mouse body weight (mg ovarian weight/g of body weight) to compensate for differences in body weight among litters of the same age. Percent inhibition of HCG-stimulated ovarian growth was calculated as described by Mizejewski et al. (1983).

[2] = system: estrogen-stimulated growth of mouse uterus; type: in vivo
Description: An in vivo wet weight bioassay measuring inhibition of estrogen-stimulated growth of uteri was performed. The procedure of Mizejewski et al. was used for the wet weight assay (see Mizejewski, G. J. et al. (1983); Mizejewski, G. J. et al. (1986); Mizejewski, G. J. and A. S. Warner (1989); Mizejewski, G. J. et al., "Separation of the Estrogen-Activated Growth-Regulatory Forms of Alpha-Fetoprotein in Mouse Amniotic Fluid," Biol of Reprod 42:887-898 (1990); and Allen, S.H.G. et al. (1993)).
Briefly, the synthesized powdered peptide was reconstituted in saline (1 mg/ml) to form a stock solution of the GIP. The stock solution was appropriately diluted to provide dosages of 25 to 100 ng/mouse. 0.1 ml of the appropriately diluted GIP was injected intraperitoneally into 15-18 day old Nya:NYLAR female mice. Control mice were injected with saline or other peptides, including a peptide encoded by a portion of the amino acid sequence of albumin and a random 34 amino acid peptide. 1 hour after this first injection, an estrogen challenge of 0.5 micrograms of E2 in 0.1 ml saline was given to determine the change in uterine responsiveness to E2 resulting from exposure to the first injection. 23 hours after the second injection, uteri were dissected, trimmed free of connective tissue and immediately weighed. The uterine wet weights were normalized to mouse body weight (mg uterine weight/g of body weight) to compensate for differences in body weight among litters of the same age. Percent inhibition of estrogen-stimulated uterine growth was calculated as described by Mizejewski et al. (1983).
Two separate bioassays for inhibition of estrogen-stimulated growth were used. The first was an in vivo bioassay measuring an estrogen-induced increase in wet weight of the immature mouse uterus in a 24-hour determination. Dosages of peptide fragments ranged from 10 to 100 ng, and the %inhibition given in Table 6 represents the peak assay point of the dilution series.

Leu Ser Glu Asp Lys Leu Leu Ala Cys Gly Glu Gly Ala Ala Asp Ile ile Ile Gly His Leu Cys Ile Arg His Glu Met Thr Pro Val Ash Pro Gly Val (LSEDKLLACGEGAADIIIGHLCIRHEMTPVNPGV) [GIP]
inhibition of HCG-induced growth (range over Table 5) ([1]; 10ng to 100 μg/mouse): 22-100%
Percent Growth Inhibition ([1]; 100 ng per mouse): 70%
Percent Growth Inhibition ([1]; 125 ng per mouse): 50%
Percent Growth Inhibition ([1]; 250 ng per mouse): 56%
Percent Growth Inhibition ([1]; 500 ng per mouse): 67%
Percent Growth Inhibition ([1]; 1 μg per mouse): 100% and 79%
Percent Growth Inhibition ([1]; 10 μg per mouse): 94%
Percent Growth Inhibition ([1]; 100 μg per mouse i.p., HCG 2.8 I.U.): 22%
most effective dose ([1]; immature ovary, produced 100% growth inhibition): 1 μg/mouse
inhibition of estrogen-stimulated growth (range over Table 1) ([2]; 25 to 100 ng/mouse, immature and adult mouse uterus): 33-79%
Percent Growth Inhibition ([2]; immature mouse uterus, 25 ng per mouse i.p., E2 challenge 0.5 micrograms): 33%
Percent Growth Inhibition ([2]; immature mouse uterus, 25 ng per mouse, added human AFP): 42%
Percent Growth Inhibition ([2]; immature mouse uterus, 50 ng per mouse i.p., E2 challenge 0.5 micrograms): 38% and 37% and 30-40%
Percent Growth Inhibition ([2]; immature mouse uterus, 100 ng per mouse i.p., E2 challenge 0.5 micrograms): 35%
inhibition of estrogen-stimulated growth ([2]; immature mouse uterus, peptide diluted 2,000-fold or more): 30-40%
dose with demonstrable activity without E2 activation prior to inoculation ([2]; mouse contains the circulating ligand (estrogen)): 100 ng/mouse
